Assay results taken from US20250326748A1, “COMPOUNDS AND METHODS FOR MODULATING SPLICING” (REMIX THERAPEUTICS INC., priority 2022, published 2025).
Counter-ions that a name gives are not always drawn. Like-named read-outs stand apart in the source and are kept apart here.

Experiments:
Assay type in all cases: cell-based, human
Target C mRNA = assay: Splicing RT-qPCR panel, Target C canonical junction (CJ) mRNA; details: read-out: Target C CJ (decrease in CJ mRNA levels, IC50)
How it was run: (§1)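 A673 cells (DMEM, 10% FBS) or K562 cells (IMDM, 10% FBS) treated 24 h at 37 °C with an 11-point 3-fold dilution, top 10 uM, DMSO ≤0.25%. Canonical-junction mRNA quantified in lysates by RT-qPCR, normalised to GAPDH, GUSB or PPIA and to DMSO (2^−ΔΔCt), then converted to % response.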

SMN2 mRNA = assay: Splicing RT-qPCR panel, SMN2 canonical junction (CJ) mRNA; details: Homo sapiens, read-out: SMN2 CJ (decrease in CJ mRNA levels, IC50)
How it was run: as §1

HTT mRNA = assay: Splicing RT-qPCR assay, HTT canonical (CJ) and alternative (AJ) junction mRNA; details: Homo sapiens; for IC50: canonical junction mRNA; for AC50: alternative junction mRNA, read-out: HTT AJ (AC50, increase in AJ mRNA)
How it was run: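 A673 cells (DMEM, 10% FBS) or K562 cells (IMDM, 10% FBS) were treated for 24 h at 37° C with an 11-point 3-fold dilution series, top dose 10 uM, DMSO ≤0.25%. Canonical and alternative junction mRNA was measured in lysates by one-step RT-qPCR. Normalization used PPIA for A673 and GAPDH or GUSB for K562.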

[1] = 24 h, RT-qPCR, A673 or K562 cells, 24 hours treatment, read-out: HTT CJ (IC50, decrease in CJ mRNA)
[2] = qPCR panel, read-out: HTT CJ (decrease in CJ mRNA levels, IC50)
[3] = RT-qPCR, A673 or K562 cells, 24 hours treatment

SMILES	IC50 (Target C mRNA; Homo sapiens) [nM]	IC50 (SMN2 mRNA) [nM]	IC50 (HTT mRNA; [1]) [nM]	IC50 (HTT mRNA; [2]) [nM]	AC50 (HTT mRNA; [3]) [nM]	IC50 (Target C mRNA) [nM]
Cn1cc2cc(-c3ccc4cc(N5CC[C@H](NCC6CC6)C5)cnc4n3)c(O)c(F)c2n1 [Compound 136, 5-{6-[(3S)-3-[(cyclopropylmethyl)amino]326pyrrolidine-1-yl]-1,8-naphthyridin-2-yl}-7-fluoro-2-methylindazol-6-ol]	1000 to 10000	< 100	100 to 1000	100 to 1000	100 to 1000	
Cc1c(O)c(-c2ccc3cc(N4CCNCC4)cnc3n2)cc2cn(C)nc12 [Compound 137, 2,7-dimethyl-5-[6-(piperazin-1-yl)-1,8-naphthyridin-2-yl]indazol-6-ol]	100 to 1000	< 100	100 to 1000	100 to 1000	100 to 1000	
Cc1c(O)c(-c2ccc3cc(N4CCC(N(C)C)CC4)cnc3n2)cc2cn(C)nc12 [Compound 138, 5-{6-[4-(dimethylamino)piperidin-1-yl]-1,8-naphthyridin-2-yl}-2,7-dimethylindazol-6-ol]	1000 to 10000	< 100	100 to 1000	100 to 1000	1000 to 10000	
CNC1CCN(c2cnc3nc(-c4cc5cn(C)nc5c(C)c4O)cc(Cl)c3c2)C1 (stereo not drawn) [Compound 142, 5-{4-chloro-6-[3-(methylamino)351pyrrolidine-1-yl]-1,8-naphthyridin-2-yl}-2,7-dimethylindazol-6-ol]	100 to 1000	< 100	< 100	< 100	100 to 1000	
Cc1c(O)c(-c2cc(Cl)c3cc(N4CCC(N(C)C)C4)cnc3n2)cc2cn(C)nc12 (stereo not drawn) [Compound 143, 5-{4-chloro-6-[3-(dimethylamino)357pyrrolidine-1-yl]-1,8-naphthyridin-2-yl}-2,7-dimethylindazol-6-ol]	100 to 1000	< 100	100 to 1000	100 to 1000	100 to 1000	
Cc1c(O)c(-c2cc(C3CC3)c3cc(N4CCNCC4)cnc3n2)cc2cn(C)nc12 [Compound 144, 5-(4-cyclopropyl-6-(piperazin-1-yl)-1,8-naphthyridin-2-yl)-2,7-dimethyl-2H-indazol-6-ol bis(2,2,2-trifluoroacetate)]	1000 to 10000	< 100	100 to 1000	100 to 1000	100 to 1000	
Cc1c(O)c(-c2cc(Cl)c3cc(NC4CCNC4)cnc3n2)cc2cn(C)nc12 (stereo not drawn) [Compound 146, 5-[4-chloro-6-(359pyrrolidine-3-ylamino)-1,8-naphthyridin-2-yl]-2,7-dimethylindazol-6-ol]	1000 to 10000	< 100	100 to 1000	100 to 1000	100 to 1000	
Cc1c(O)c(-c2cc(Cl)c3cc(N4CCNC(C)C4)cnc3n2)cc2cn(C)nc12 (stereo not drawn) [Compound 147]	1000 to 10000	< 100	100 to 1000	100 to 1000	100 to 1000	
Cc1c(O)c(-c2cc(Cl)c3cc(N4C[C@@H](C)N[C@@H](C)C4)cnc3n2)cc2cn(C)nc12 [Compound 149]		< 100	100 to 1000	100 to 1000	100 to 1000	1000 to 10000
CNC(=O)c1cc(-c2cc3cn(C)nc3c(C)c2O)nc2ncc(N3CCNCC3)cc12 [Compound 150, 2-(6-hydroxy-2,7-dimethylindazol-5-yl)-N-methyl-6-(piperazin-1-yl)-1,8-naphthyridine-4-carboxamide]	> 10000	1000 to 10000	> 10000	> 10000	> 10000	
Cc1cc(-c2cc3cn(C)nc3c(C)c2O)nc2ncc(N3CCNCC3)cc12 [Compound 151, 2,7-dimethyl-5-[4-methyl-6-(piperazin-1-yl)-1,8-naphthyridin-2-yl]indazol-6-ol]	1000 to 10000	< 100	100 to 1000	100 to 1000	100 to 1000	
Cc1cn2cc(-c3cc(Cl)c4cc(N5CCNCC5)cnc4n3)cc(F)c2n1 [Compound 153, 4-chloro-2-{8-fluoro-2-methylimidazo[1,2-a]pyridin-6-yl}-6-(piperazin-1-yl)-1,8-naphthyridine]	1000 to 10000	< 100	100 to 1000	100 to 1000	1000 to 10000	
CN[C@H]1CCN(c2cnc3nc(-c4cc5cn(C)nc5c(F)c4O)cc(Cl)c3c2)C1 [Compound 272]	100 to 1000	< 100	< 100	< 100	< 100	
Cn1cc2cc(-c3cc(Cl)c4cc(N5CCNC6(CC6)C5)cnc4n3)c(O)c(F)c2n1 [Compound 274]	1000 to 10000	< 100	100 to 1000	100 to 1000	100 to 1000	
CN(c1cnc2nc(-c3cc4cn(C)nc4c(F)c3O)cc(Cl)c2c1)[C@H]1CCNC1 [Compound 275]	1000 to 10000	< 100	1000 to 10000	1000 to 10000	1000 to 10000	
CN(c1cnc2nc(-c3cc4cn(C)nc4c(F)c3O)cc(Cl)c2c1)[C@@H]1CCNC1 [Compound 276]	1000 to 10000	< 100	100 to 1000	100 to 1000	100 to 1000	
Cc1c(O)c(-c2ccc3c(Cl)c(N4CCNCC4)cnc3n2)cc2cn(C)nc12 [Compound 278, 5-[5-chloro-6-(piperazin-1-yl)-1,8-naphthyridin-2-yl]-2,7-dimethylindazol-6-ol]	1000 to 10000	< 100	1000 to 10000	1000 to 10000	1000 to 10000	
C[C@@H]1CN(c2cnc3nc(-c4cc5cn(C)nc5c(F)c4O)cc(Cl)c3c2)C[C@H](C)N1 [Compound 279]	1000 to 10000	< 100	100 to 1000	100 to 1000	100 to 1000	
C[C@H]1CN(c2cnc3nc(-c4cc5cn(C)nc5c(F)c4O)cc(Cl)c3c2)C[C@H](C)N1 [Compound 280]	< 100	< 100	< 100	< 100	< 100	
C[C@@H]1CN(c2cnc3nc(-c4cc5cn(C)nc5c(F)c4O)cc(Cl)c3c2)C[C@@H](C)N1 [Compound 281]	100 to 1000	< 100	< 100	< 100	100 to 1000	
CN(c1cnc2nc(-c3cc4cn(C)nc4c(F)c3O)ccc2c1)C1CCNCC1 [Compound 284]	> 10000	< 100	1000 to 10000	1000 to 10000	1000 to 10000	
Cn1cc2cc(-c3ccc4cc(NC5CCNCC5)cnc4n3)c(O)c(F)c2n1 [Compound 285]	1000 to 10000	< 100	100 to 1000	100 to 1000	100 to 1000	
CN[C@@H]1CCN(c2cnc3nc(-c4cc5cn(C)nc5c(C)c4O)cc(Cl)c3c2)C1 [Compound 286, 5-{4-chloro-6-[(3R)-3-(methylamino)pyrrolidin-1-yl]-1,8-naphthyridin-2-yl}-2,7-dimethylindazol-6-ol hydrochloride]	< 100	< 100	< 100	< 100	< 100	
CN[C@H]1CCN(c2cnc3nc(-c4cc5cn(C)nc5c(C)c4O)cc(Cl)c3c2)C1.Cl [Compound 287]	100 to 1000	< 100	< 100	< 100	100 to 1000	
C[C@H]1CN(c2cnc3nc(-c4cc(F)c5nn(C)cc5c4)cc(Cl)c3c2)C[C@@H](C2CC2)N1 [Compound 288]	1000 to 10000	< 100	1000 to 10000	1000 to 10000	1000 to 10000	
Cc1c(O)c(-c2cc(Cl)c3cc(N(C)[C@@H]4CCNC4)cnc3n2)cc2cn(C)nc12.Cl [Compound 293]	1000 to 10000	< 100	100 to 1000	100 to 1000	100 to 1000	
Cc1c(O)c(-c2cc(Cl)c3cc(N(C)[C@H]4CCNC4)cnc3n2)cc2cn(C)nc12 [Compound 294]	1000 to 10000	< 100	100 to 1000	100 to 1000	1000 to 10000	
C[C@@H]1CN(c2cnc3nc(-c4cc(F)c5nn(C)cc5c4)cc(Cl)c3c2)CCN1 [Compound 295, 4-chloro-2-(7-fluoro-2-methylindazol-5-yl)-6-[(3R)-3-methylpiperazin-1-yl]-1,8-naphthyridine]	1000 to 10000	< 100	100 to 1000	100 to 1000	100 to 1000	
C[C@H]1CN(c2cnc3nc(-c4cc(F)c5nn(C)cc5c4)cc(Cl)c3c2)CCN1 [Compound 296]	1000 to 10000	< 100	100 to 1000	100 to 1000	1000 to 10000	
Cc1cn2cc(-c3cc(Cl)c4cc(N5C[C@@H](C)N[C@@H](C)C5)cnc4n3)cc(F)c2n1 [Compound 297]	> 10000	< 100	1000 to 10000	1000 to 10000	1000 to 10000	
